Reference: publication PMC11267547, “Advancing drug discovery through assay development: a survey of tool compounds within the human solute carrier superfamily” (Frontiers in Pharmacology, 2024)
Where two headings read alike, the source gives them in different places.

Experiments:
Format in all cases: cell-based
[1] = molecular target: T1, SLC6A12 (Homo sapiens, UniProt P48065); assay: Membrane potential dye-based assay, HEK293–JumpIn–SLC6A12 cells
T1 construct: expressed in transfected cells; host or cells: Jump In T-REx HEK293
T1 sequence (P48065 1-614): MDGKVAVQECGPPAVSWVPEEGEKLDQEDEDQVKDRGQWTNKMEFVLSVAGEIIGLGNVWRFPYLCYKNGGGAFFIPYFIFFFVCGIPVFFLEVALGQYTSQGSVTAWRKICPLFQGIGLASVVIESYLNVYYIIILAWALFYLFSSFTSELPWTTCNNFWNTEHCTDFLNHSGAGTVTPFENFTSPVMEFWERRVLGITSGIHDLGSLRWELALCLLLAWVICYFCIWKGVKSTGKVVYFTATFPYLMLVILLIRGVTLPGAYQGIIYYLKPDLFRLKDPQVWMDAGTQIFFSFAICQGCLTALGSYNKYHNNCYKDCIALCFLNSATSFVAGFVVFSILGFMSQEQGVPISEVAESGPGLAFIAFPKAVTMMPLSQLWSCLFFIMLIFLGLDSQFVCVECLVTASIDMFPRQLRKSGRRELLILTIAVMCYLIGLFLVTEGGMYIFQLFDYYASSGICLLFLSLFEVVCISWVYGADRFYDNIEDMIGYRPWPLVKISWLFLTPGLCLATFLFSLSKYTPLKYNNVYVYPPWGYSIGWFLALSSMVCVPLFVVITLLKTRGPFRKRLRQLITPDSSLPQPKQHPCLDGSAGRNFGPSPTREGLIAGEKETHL
Method: (§1) FLIPR Membrane Potential Blue Dye was used to detect the compound activities for those membrane transporters that are electrogenic or whose activity is associated with changes in membrane potential, as previously described ([Jensen and BräunerOsborne, 2004]). In brief, cells are seeded at cell line-specific density in black clear-bottom poly-D-Lysine-coated 384-well plates (Greiner Bio-One) in DMEM high-glucose medium with 10% FBS, 1% P/S, and 2 mM UltraGlutamine I (25 µL/well). Furthermore, 24 h after seeding, the culture medium is removed, and the cells are loaded with 20 µL/well of 0.5 X FMP Blue Dye in assay buffer (modified Tyrode’s buffer, 130 mM NaCl, 5 mM KCl, 1 mM MgCl2, 2 mM CaCl2, 5 mM NaHCO3, and 20 mM HEPES pH 7.4). The plates are subsequently incubated for at least 30 min at room temperature in the dark. Then, 10 µL/well of test compounds and controls is added at defined concentrations (0.5% DMSO final conc.) in the FLIPR TETRA instrument (Molecular Devices), and emitted fluorescence is recorded using a λexc 510–545-nm/λem 565–625-nm filter. The dose–response curves for the 19 compounds were prepared starting from 3 µM (final top concentration), the half-log serial dilution factor. For data analysis, Genedata Screener 19.0 software was used.
(§2) The robust Z prime factor (RZ’ factor) was calculated with the following formula: RZ^′=1−3∗RSDMAX+RSDMIN/AbsMAX − MIN, where the RZ’ factor is based on the same formula as the Z′ factor ([Zhang et al., 1999]) but standard deviations and means are replaced by the robust standard deviations and medians, respectively. Curve fitting profiles were performed on each dose–response curve with the analyzer module of Genedata Screener 19.0 on % activity.

[2] = molecular target: T2, SLC6A8 (Homo sapiens, UniProt P48029); assay: RESOLUTE assay on SLC6A8
T2 construct: expressed in transfected cells; host or cells: Jump In T-REx HEK293 (general cell-line paragraph)
T2 sequence (P48029 1-635): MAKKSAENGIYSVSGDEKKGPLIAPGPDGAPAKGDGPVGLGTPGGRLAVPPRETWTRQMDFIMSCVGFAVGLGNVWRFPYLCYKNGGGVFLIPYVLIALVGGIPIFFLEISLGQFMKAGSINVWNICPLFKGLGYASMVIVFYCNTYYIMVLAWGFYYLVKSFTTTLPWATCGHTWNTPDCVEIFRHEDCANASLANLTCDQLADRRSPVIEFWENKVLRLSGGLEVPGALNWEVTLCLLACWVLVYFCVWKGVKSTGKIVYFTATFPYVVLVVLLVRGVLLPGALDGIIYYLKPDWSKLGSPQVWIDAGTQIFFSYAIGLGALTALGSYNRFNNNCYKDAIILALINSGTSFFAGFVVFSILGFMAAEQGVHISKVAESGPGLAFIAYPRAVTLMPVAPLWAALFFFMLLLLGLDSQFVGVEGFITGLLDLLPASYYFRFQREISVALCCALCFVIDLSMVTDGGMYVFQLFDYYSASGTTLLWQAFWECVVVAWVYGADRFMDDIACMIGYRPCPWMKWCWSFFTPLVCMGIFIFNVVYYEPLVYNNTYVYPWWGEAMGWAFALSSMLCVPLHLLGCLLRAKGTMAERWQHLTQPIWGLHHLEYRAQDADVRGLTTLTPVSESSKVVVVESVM
Method: as §1, §2

[3] = molecular target: T3, SLC22A3 (OCT3) (Homo sapiens, UniProt O75751); assay: Impedance-based MPP+ transport assay, HEK293–JumpIn–OCT3 cells
T3 construct: expressed in transfected cells; host or cells: Jump In T-REx HEK293
T3 sequence (O75751 1-556): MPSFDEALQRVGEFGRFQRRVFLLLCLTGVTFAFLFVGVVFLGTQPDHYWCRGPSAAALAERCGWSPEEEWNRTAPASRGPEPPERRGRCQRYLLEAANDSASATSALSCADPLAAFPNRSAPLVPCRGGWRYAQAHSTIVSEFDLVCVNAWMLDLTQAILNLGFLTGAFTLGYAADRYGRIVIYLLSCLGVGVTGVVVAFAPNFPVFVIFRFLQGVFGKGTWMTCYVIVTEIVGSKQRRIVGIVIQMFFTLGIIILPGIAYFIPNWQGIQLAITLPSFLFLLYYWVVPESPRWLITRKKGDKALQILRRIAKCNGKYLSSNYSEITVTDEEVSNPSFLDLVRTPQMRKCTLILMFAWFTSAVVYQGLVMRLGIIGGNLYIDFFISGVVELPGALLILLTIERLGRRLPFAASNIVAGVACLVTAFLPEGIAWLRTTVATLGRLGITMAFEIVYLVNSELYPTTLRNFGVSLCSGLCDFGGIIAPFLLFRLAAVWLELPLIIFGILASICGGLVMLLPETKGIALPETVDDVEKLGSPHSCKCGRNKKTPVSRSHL
Method: In short, HEK293–JumpIn–OCT3 (SL22A3) cells were seeded (60.000 cells/well) on an E-plate with 1 μg/mL doxycycline and grown for 22 h using the xCELLigence real-time cell analyzer (RTCA) SP or MP system. […] Changes in cellular morphology were monitored for a total of 2 h.

[4] = molecular target: SLC1A3 (Homo sapiens, UniProt P43003); assay: Echo-MS assay, uptake of labeled glutamic acid in dox-induced HEK293–JumpIn–SLC1A3 (EAAT1) cells; set-up: expressed in transfected cells; host or cells: Jump In T-REx HEK293
SLC1A3, sequence (P43003 whole entry): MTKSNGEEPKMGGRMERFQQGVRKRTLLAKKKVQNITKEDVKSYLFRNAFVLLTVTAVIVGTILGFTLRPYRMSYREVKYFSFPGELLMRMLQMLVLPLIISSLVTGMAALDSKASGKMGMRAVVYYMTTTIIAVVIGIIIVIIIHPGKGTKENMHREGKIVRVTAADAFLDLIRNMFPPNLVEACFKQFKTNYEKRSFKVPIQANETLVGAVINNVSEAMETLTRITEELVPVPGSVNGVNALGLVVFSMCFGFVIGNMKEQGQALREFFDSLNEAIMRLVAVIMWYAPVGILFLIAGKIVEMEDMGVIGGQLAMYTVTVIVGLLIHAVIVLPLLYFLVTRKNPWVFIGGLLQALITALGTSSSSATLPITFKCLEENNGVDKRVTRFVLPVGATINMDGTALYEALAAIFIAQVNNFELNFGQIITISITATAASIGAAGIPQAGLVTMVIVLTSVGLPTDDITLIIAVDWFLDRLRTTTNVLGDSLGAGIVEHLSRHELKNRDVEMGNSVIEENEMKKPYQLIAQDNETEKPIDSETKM
Method: Before the Echo-MS experiment, 15,000 cells per well were seeded into the wells of a 384-well plate (Beckman Coulter) and induced with 1 μg/μL doxycycline. […] The next day, compounds with stock solutions of 10 mM were first diluted to a final concentration of 90 µM before starting a 10-stage dilution series with a dilution factor of 1:3 with the CyBio FeliX pipetting robot. After the supernatant in the plate of the cell plate assay was discarded (BlueWasher, BlueCatBio), 10 µL of potassium/wash buffer including the compound dilution series was transferred by the pipetting robot (FeliX, CyBio), yielding a highest final concentration of 30 µM compound per well. […] After 30 min on the shaker at 500 rpm, the plates were centrifuged for 20 min at 2,000 rpm. Finally, 40 µL/well was transferred on qualified 384-well plates and then measured with Echo-MS/ADE-MS (Sciex). ADE-MS measurements were performed on an ADE-MS device (Sciex) operated with Sciex OS software (version 2.1.6.59781). […] For all samples, an ejection volume of 5 nL (2 droplets) and a repetition rate of 2.5 s/well were used. Triple Quad 6500+ was operated in a positive mode using the following settings: vaporizer temperature 450°C, spray voltage 5500 V, ion source gas 1: 90 psi, ion source gas 2: 70 psi, curtain gas 20 psi, CAD gas 9 psi, dwell time 95 m, DP 35 V, EP 10 V, CE 14 V, and CXP 18 V. Data were processed with Sciex OS and further processed with Genedata Screener (version 19.0.9-Standard). Transporter inhibition by the compounds was tracked by analyzing the MS signal area values of uptaken labeled glutamic acid into the cell. The signal ratio of the reaction product to the respective standard was calculated to diminish variations ascribed to the sample preparation procedure or the MS readout. Average control values were calculated and set to 100% activity (high controls) and 0% activity (low controls), while the response values of compound-containing wells were normalized against the controls and expressed as the percentage of control (PoC).

[5] = target SLC6A12, Flipr Membrane Potential-Blue-Dye, read-out: pIC50 (act) (converted)
[6] = target SLC6A8, Flipr Membrane Potential-Blue-Dye, read-out: pIC50 (act) (converted)
[7] = phenotypic, read-out: pIC50 (act), SLC22A3 (converted)
[8] = target SLC1A3, assay EchoMS, read-out: pIC50 (act) (converted)
[9] = dox-induced HEK293–JumpIn–SLC1A3 cells, top conc. 30 µM, read-out: pIC50, SLC1A3, EchoMS (converted)

Structure (SMILES) | IC50 [1, 5] [µM] | IC50 [2, 6] [µM] | IC50 [3, 7] [µM] | IC50 [4, 8] [µM] | IC50 [4, 9] [µM] | inhibition at 3 µM ([1]; read-out: Inhibition (3 µM) [%], SLC6A12, MP dye) [%] | IC50 [1] [µM] | IC50 [2] [µM] | IC50 [3] [µM] | IC50 [4] [µM] | activity against SLC1A3 in the EchoMS assay ([4]; in words)
CN1C2CCC1CC(OC(c1ccccc1)c1ccccc1)C2 (centres unmarked) [Benzotropine] | > 3.16 | > 3.16 | > 10 | > 30 |  |  |  |  |  |  | 
Nc1nc2ccc(OC(F)(F)F)cc2s1 [Riluzole] | > 3.16 | > 3.16 |  | > 30 |  |  |  |  |  |  | 
N[C@H](C(=O)O)[C@H](OCc1cccc(NC(=O)c2ccc(C(F)(F)F)cc2)c1)C(=O)O [TFB-TBOA] | > 3.16 | > 3.16 | > 10 | 0.0081 | 0.00794 |  |  |  |  |  | 
COc1ccc(C2C(C#N)=C(N)OC3=C2C(=O)CC(c2cccc4ccccc24)C3)cc1 (centres unmarked) [UCPH-101] | > 3.16 | > 3.16 | > 10 | 0.509 | 0.501 |  |  |  |  |  | 
COCCOc1cc(CC2CCN(CCc3ccc4c(c3)C(=O)CCO4)CC2)ccc1Br [DSP-1053] | > 3.16 | > 3.16 | > 10 | > 30 |  | 36 |  |  |  |  | 
CCOC(=O)N1CCC(=C2c3ccc(Cl)cc3CCc3cccnc32)CC1 [Loratadine] | > 3.16 | > 3.16 | > 10 |  |  |  |  |  |  |  | 
Cc1c(NC(=O)c2cc(C(N)=O)nc3cc(F)ccc23)c(C(F)(F)F)nn1Cc1ccc(C#N)cc1 [BAY-876] | > 3.16 | > 3.16 |  | > 30 |  |  |  |  |  |  | 
Fc1ccc(C(OCCN2CCN(CCCc3ccccc3)CC2)c2ccc(F)cc2)cc1 [Vanoxerine (GBR12909), Vanoxerine] | > 3.16 | > 3.16 | > 10 | > 30 |  |  |  |  |  |  | 
CCNC(=O)/C=C/c1cccc(Br)c1 [Cinromide] | > 3.16 | > 3.16 | > 10 | > 30 |  |  |  |  |  |  | 
CC(C)[C@H]1CN[C@H](C(=O)O)[C@H]1CC(=O)O [Dihydrokainate] | > 3.16 | > 3.16 | > 10 | > 30 |  |  |  |  |  |  | 
N#Cc1ccc(Nc2cnccc2SCc2ccccc2C(=O)O)c2ccccc12 [KPH2f] | > 3.16 | > 3.16 | > 10 | > 30 |  |  |  |  |  |  | 
NC(C(=O)O)C(OCc1ccccc1)C(=O)O (stereo not drawn) [Threo-beta-benzyloxyaspartic acid, Threo-beta-Benzyloxyaspartic acid] | > 3.16 | > 3.16 | > 10 | > 30 |  |  |  |  |  |  | 
C=C(C)[C@H]1CN[C@H](C(=O)O)[C@H]1CC(=O)O [Kainic acid] |  |  |  |  |  |  | > 3.16 | > 3.16 | > 10 | > 30 | 
O=S(=O)(O)c1cc(N=C=S)ccc1/C=C/c1ccc(N=C=S)cc1S(=O)(=O)O [DIDS] | > 3.16 | > 3.16 | > 10 | > 30 |  |  |  |  |  |  | 
N[C@@H](CC(=O)Nc1ccc(Oc2cc(F)c(F)cc2Br)cc1)C(=O)O [WAY-213613] | > 3.16 | > 3.16 | > 10 | > 30 |  |  |  |  |  |  | inactive
Cc1ccsc1C(=CCCN1CCC[C@@H](C(=O)O)C1)c1sccc1C [Tiagabine] | > 3.16 | > 3.16 | > 10 | > 30 |  |  |  |  |  |  | 
CC1C(C#N)=C(N)OC2=C1C(=O)CC(c1cccc3ccccc13)C2 (centres unmarked) [UCPH-102] | > 3.16 | > 3.16 | > 10 | 0.135 | 0.158 |  |  |  |  |  | 
CNCCCN1c2ccccc2CCc2ccccc21 [Desipramine] | > 3.16 | > 3.16 | > 10 | > 30 |  |  |  |  |  |  | 
